Test results taken from patent US9751888B2, “Heterocyclic compounds and uses thereof” (Infinity Pharmaceuticals, Inc., priority 2013, dated 2017).

Experiments:
[1] = target: human Class I PI3 kinase δ (Homo sapiens (Human), UniProt O00329); assay: PI3-Kinase Promega ADP-Glo Max assay, δ isoform; type: biochemical; settings: 20 nM kinase, 3 mM ATP, 500 uM diC8-PtdInsP; read-out: Promega δ PI3K IC50
Protocol: (§1) Promega ADP-Glo Max assay kit (Cat. No. V7002) was utilized to determine IC50 values for α, β, δ and γ isoforms of human Class I PI3 kinases (Millipore). […] Reactions were incubated at room temperature for 2 hours followed by addition of 25 uL of stop solution. After a 40-minute incubation at room temperature, 50 uL of Promega detection mix was added followed by incubation for 1 hour at room temperature. Plates were then read on Envision plate reader in luminescence mode. Data was converted to % inhibition using the following equation below: [formula] where S is the sample luminescence, Pos is a positive control without added PI3K, Neg is the negative control without added compound. Data was then plotted as % inhibition vs compound concentration.

[2] = target: human Class I PI3 kinase β (Homo sapiens (Human), UniProt P42338); assay: PI3-Kinase Promega ADP-Glo Max assay, β isoform; type: biochemical; settings: 40 nM kinase, 3 mM ATP, 500 uM diC8-PtdInsP; read-out: Promega β PI3K IC50
Protocol: Promega ADP-Glo Max assay kit (Cat. No. V7002) was utilized to determine IC50 values for α, β, δ and γ isoforms of human Class I PI3 kinases (Millipore). […] Reactions were incubated at room temperature for 2 hours followed by addition of 25 uL of stop solution. After a 40-minute incubation at room temperature, 50 uL of Promega detection mix was added followed by incubation for 1 hour at room temperature. Plates were then read on Envision plate reader in luminescence mode. Data was converted to % inhibition using the following equation below:

[3] = target: human Class I PI3 kinase α (Homo sapiens (Human), UniProt P42336); assay: PI3-Kinase Promega ADP-Glo Max assay, α isoform; type: biochemical; settings: 20 nM kinase, 3 mM ATP, 500 uM diC8-PtdInsP; read-out: Promega α PI3K IC50
Protocol: as §1

[4] = target: human Class I PI3 kinase γ (Homo sapiens (Human), UniProt P48736); assay: PI3-Kinase Promega ADP-Glo Max assay, γ isoform; type: biochemical; settings: 40 nM kinase, 3 mM ATP, 500 uM diC8-PtdInsP; read-out: Promega γ PI3K IC50
Protocol: Promega ADP-Glo Max assay kit (Cat. No. V7002) was utilized to determine IC50 values for α, β, δ and γ isoforms of human Class I PI3 kinases (Millipore). Samples of kinase (20 nM α or δ, 40 nM β or γ isoform) were incubated with compound for 15 minutes at room temperature in reaction buffer (15 mM HEPES pH 7.4, 20 mM NaCl, 1 mM EGTA, 0.02% Tween 20, 10 mM MgCl2, 0.2 mg/mL bovine-γ-globulins) followed by addition of ATP/diC8-PtdInsP mixture to give final concentrations of 3 mM ATP and 500 uM diC8-PtdInsP. Reactions were incubated at room temperature for 2 hours followed by addition of 25 uL of stop solution. After a 40-minute incubation at room temperature, 50 uL of Promega detection mix was added followed by incubation for 1 hour at room temperature. Plates were then read on Envision plate reader in luminescence mode. Data was converted to % inhibition using the following equation below:
[formula] where S is the sample luminescence, Pos is a positive control without added PI3K, Neg is the negative control without added compound. Data was then plotted as % inhibition vs compound concentration.
Certain compounds provided herein were tested in PI3-Kinase Promega Assay using procedures as described above to determine IC50 values for α, β, δ and/or γ isoforms.

p110 δ (RAJI cells) = p110 δ (RAJI cells) (Homo sapiens (Human), UniProt O00329); assay: PI3K-δ selective cellular assay: phospho-AKT in anti-human IgM stimulated RAJI cells; type: cell-based; settings: serum-starved RAJI cells stimulated with anti-human IgM
Excerpt: A compound's ability in selectively inhibiting PI3K-δ can be assessed using RAJI cells, i.e., B lymphocyte cells derived from lymphoma patients. Briefly, serum-starved RAJI cells are stimulated with anti-human IgM, thereby causing signaling through the B-cell receptors, as described in, for example, He et al., Leukemia Research (2009) 33: 798-802. B-cell receptor signaling is important for the activation, differentiation, and survival of B cells and certain B-cell derived cancers. Reduction of phospho-AKT is indicative of compounds that may inhibit B-cell proliferation and function in certain diseases. […] Certain compounds provided herein were tested in RAJI cell model using procedures as described above.

p110 γ (RAW264.7 cells) = p110 γ (RAW264.7 cells) (Mus musculus (Mouse), UniProt Q9JHG7); assay: PI3K-γ selective cellular assay: phospho-AKT in C5a stimulated RAW264.7 macrophages; type: cell-based; settings: serum-starved RAW264.7 cells stimulated with C5a
Protocol: Certain compounds provided herein were tested in RAW 264.7 cell model using procedures as described above.

p110 γ (RAW264.7 cells), sequence (Q9JHG7 whole entry): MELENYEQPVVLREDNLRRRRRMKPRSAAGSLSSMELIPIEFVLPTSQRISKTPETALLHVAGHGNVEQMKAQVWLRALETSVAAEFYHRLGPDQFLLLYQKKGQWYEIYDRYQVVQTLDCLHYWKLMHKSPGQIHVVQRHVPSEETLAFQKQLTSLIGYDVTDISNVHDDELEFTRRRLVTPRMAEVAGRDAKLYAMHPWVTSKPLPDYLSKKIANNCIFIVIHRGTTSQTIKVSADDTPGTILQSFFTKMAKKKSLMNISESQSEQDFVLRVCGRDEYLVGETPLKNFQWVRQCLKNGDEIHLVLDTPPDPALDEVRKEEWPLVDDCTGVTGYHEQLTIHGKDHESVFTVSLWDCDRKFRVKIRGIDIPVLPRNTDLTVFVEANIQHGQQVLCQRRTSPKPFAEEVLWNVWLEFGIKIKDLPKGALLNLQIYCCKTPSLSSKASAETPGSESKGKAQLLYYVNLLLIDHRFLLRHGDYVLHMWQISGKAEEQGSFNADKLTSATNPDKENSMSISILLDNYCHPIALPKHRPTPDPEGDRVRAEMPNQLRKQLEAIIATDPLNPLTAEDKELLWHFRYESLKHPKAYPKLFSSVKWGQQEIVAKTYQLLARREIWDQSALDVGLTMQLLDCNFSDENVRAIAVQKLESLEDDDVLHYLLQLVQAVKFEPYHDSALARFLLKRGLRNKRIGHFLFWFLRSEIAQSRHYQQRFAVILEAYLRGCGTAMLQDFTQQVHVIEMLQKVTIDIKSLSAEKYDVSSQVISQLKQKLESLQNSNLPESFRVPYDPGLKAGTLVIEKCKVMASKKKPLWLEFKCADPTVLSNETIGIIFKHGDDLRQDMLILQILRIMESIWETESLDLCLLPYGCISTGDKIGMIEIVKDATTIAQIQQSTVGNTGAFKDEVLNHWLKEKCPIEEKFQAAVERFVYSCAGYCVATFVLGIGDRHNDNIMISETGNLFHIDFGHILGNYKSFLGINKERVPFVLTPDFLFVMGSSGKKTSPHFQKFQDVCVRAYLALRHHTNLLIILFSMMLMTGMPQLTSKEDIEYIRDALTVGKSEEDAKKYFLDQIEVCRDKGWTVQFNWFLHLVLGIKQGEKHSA
human Class I PI3 kinase β, sequence (P42338 whole entry, looked up, canonical isoform): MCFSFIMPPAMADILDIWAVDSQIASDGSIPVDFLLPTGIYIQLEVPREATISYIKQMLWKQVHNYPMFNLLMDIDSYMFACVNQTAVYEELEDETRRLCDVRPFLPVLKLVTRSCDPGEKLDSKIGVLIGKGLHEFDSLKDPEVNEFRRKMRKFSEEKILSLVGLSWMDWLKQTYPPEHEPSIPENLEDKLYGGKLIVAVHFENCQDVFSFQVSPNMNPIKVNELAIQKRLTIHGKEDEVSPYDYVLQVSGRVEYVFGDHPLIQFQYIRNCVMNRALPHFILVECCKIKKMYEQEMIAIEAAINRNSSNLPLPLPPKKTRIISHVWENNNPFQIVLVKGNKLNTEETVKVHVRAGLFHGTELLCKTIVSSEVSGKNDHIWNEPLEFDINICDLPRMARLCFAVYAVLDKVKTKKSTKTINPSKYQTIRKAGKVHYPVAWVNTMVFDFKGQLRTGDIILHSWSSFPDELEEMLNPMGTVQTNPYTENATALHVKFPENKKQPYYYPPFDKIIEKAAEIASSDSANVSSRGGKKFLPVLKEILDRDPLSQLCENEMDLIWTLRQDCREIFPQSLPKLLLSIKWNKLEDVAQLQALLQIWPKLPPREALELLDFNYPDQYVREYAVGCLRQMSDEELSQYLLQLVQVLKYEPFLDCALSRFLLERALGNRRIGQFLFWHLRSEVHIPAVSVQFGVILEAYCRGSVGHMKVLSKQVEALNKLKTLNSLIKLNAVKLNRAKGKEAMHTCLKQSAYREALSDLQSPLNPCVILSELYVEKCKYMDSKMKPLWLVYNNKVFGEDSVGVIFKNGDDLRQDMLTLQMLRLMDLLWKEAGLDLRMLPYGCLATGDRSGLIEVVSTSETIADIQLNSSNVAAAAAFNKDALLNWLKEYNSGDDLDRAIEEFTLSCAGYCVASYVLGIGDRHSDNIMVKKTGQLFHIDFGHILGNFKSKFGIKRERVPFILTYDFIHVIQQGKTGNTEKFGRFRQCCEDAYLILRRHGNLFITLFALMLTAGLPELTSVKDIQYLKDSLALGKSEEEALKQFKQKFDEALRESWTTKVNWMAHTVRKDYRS
human Class I PI3 kinase β, sequence (P27986 whole entry partner, looked up, canonical isoform): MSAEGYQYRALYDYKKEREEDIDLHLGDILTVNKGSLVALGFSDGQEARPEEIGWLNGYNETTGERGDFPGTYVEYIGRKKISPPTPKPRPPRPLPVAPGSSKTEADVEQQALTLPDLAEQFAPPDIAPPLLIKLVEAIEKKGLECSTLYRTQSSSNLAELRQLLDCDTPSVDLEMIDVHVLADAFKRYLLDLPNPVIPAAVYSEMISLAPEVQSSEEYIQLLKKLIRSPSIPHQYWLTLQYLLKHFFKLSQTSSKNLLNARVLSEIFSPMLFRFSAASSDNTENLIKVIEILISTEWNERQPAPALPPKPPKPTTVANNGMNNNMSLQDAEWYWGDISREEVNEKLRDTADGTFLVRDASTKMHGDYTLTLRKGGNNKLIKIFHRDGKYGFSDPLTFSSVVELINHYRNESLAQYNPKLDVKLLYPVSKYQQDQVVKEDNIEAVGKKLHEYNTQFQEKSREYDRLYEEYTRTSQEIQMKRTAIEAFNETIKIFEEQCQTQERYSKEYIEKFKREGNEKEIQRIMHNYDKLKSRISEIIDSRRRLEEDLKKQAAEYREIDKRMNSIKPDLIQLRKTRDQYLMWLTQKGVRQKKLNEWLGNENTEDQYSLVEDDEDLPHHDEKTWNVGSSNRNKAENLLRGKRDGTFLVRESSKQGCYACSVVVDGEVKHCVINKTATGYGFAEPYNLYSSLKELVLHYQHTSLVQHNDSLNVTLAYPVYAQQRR
p110 δ (RAJI cells), sequence (O00329 whole entry): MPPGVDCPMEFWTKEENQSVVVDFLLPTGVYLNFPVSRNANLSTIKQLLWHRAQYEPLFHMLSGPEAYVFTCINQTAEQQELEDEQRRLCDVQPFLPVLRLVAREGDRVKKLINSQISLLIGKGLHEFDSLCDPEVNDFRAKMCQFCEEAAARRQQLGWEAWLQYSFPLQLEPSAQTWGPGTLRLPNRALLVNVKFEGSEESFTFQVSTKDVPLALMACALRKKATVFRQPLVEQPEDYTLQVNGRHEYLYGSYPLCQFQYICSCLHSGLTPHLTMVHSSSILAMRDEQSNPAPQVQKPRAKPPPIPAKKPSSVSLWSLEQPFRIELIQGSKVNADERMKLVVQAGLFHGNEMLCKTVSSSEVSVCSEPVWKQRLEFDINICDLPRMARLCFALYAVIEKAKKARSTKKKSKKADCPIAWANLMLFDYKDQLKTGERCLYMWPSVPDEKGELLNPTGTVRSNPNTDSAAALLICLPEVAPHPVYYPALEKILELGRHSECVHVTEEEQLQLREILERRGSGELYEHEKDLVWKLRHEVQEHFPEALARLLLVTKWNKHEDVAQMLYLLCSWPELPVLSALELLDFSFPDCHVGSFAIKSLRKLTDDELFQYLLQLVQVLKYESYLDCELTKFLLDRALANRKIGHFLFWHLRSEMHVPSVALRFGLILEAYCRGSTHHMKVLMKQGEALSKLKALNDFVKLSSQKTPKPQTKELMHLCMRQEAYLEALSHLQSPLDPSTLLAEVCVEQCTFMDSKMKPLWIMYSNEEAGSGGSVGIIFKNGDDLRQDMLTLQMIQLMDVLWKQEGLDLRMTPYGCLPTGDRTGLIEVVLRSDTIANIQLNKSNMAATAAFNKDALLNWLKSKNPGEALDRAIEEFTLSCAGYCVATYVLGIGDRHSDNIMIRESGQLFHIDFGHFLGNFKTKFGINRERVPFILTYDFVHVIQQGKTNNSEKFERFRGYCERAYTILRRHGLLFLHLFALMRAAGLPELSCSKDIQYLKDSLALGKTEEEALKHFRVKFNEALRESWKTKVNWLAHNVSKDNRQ
p110 δ (RAJI cells), sequence (P27986 whole entry partner): as the sequence (P27986 whole entry partner, looked up, canonical isoform) above
human Class I PI3 kinase δ, sequence (O00329 whole entry, canonical isoform): as the sequence (O00329 whole entry) above
human Class I PI3 kinase δ, sequence (P27986 whole entry partner, canonical isoform): as the sequence (P27986 whole entry partner, looked up, canonical isoform) above

Row | Structure (SMILES) | IC50 [1] [nM] | IC50 [2] [nM] | IC50 [3] [nM] | IC50 [4] [nM] | IC50 (p110 δ (RAJI cells)) [nM] | IC50 (p110 γ (RAW264.7 cells)) [nM]
1 | C[C@H](NC(=O)c1nc(C2CC2)cnc1N)c1cc2cccc(Cl)c2c(=O)n1-c1ccccc1 [Compound 3] | 1000 to 10000 | 1000 to 10000 | 1000 to 10000 | 1000 to 10000 | – | –
2 | CCn1cc(-c2cccc3cc([C@H](C)NC(=O)c4c(N)nn5cccnc45)n(-c4ccccc4)c(=O)c23)cn1 [Compound 5] | 1000 to 10000 | 1000 to 10000 | 1000 to 10000 | 100 to 500 | 100 to 500 | 10 to 100
3 | C[C@H](NC(=O)c1c(N)nn2cccnc12)c1cc2cccc(Cl)c2c(=O)n1CCNS(C)(=O)=O [Compound 13] | 1000 to 10000 | 500 to 1000 | 1000 to 10000 | 10 to 100 | 10 to 100 | 100 to 500
4 | C[C@H](NC(=O)c1c(N)nn2cccnc12)c1cc2cccc(Cl)c2c(=O)n1CCc1ccccc1 [Compound 15] | 1000 to 10000 | 1000 to 10000 | 1000 to 10000 | 1000 to 10000 | 10 to 100 | 100 to 500
5 | C[C@H](NC(=O)c1c(N)nn2cccnc12)c1cc2cccc(Cl)c2c(=O)n1CCc1nnn[nH]1 [Compound 16] | 1000 to 10000 | 1000 to 10000 | 1000 to 10000 | 10 to 100 | 1000 to 10000 | 500 to 1000
6 | C[C@H](NC(=O)c1c(N)nn2cccnc12)c1cc2cccc(Cl)c2c(=O)n1Cc1nnn[nH]1 [Compound 17] | 1000 to 10000 | 1000 to 10000 | 1000 to 10000 | 100 to 500 | 1000 to 10000 | 500 to 1000
7 | Cc1noc(CCn2c([C@H](C)NC(=O)c3c(N)nn4cccnc34)cc3cccc(Cl)c3c2=O)n1 [Compound 18] | 1000 to 10000 | 1000 to 10000 | 1000 to 10000 | 1000 to 10000 | 10 to 100 | 100 to 500
8 | C[C@H](NC(=O)c1c(N)nn2cccnc12)c1cc2cccc(Cl)c2c(=O)n1CCS(N)(=O)=O [Compound 19] | 1000 to 10000 | 100 to 500 | 1000 to 10000 | 10 to 100 | 10 to 100 | 10 to 100
9 | C[C@H](NC(=O)c1c(N)nn2cccnc12)c1cc2cccc(Cl)c2c(=O)n1CCc1ncn[nH]1 [Compound 20] | 1000 to 10000 | 500 to 1000 | 1000 to 10000 | 500 to 1000 | 10 to 100 | 1000 to 10000
10 | C[C@H](NC(=O)c1c(N)nn2cccnc12)c1cc2cccc(Cl)c2c(=O)n1CCc1c[nH]cn1 [Compound 21] | 1000 to 10000 | 100 to 500 | 1000 to 10000 | 1000 to 10000 | – | –
11 | C[C@H](NC(=O)c1c(N)ncn2ccnc12)c1cc2cccc(Cl)c2c(=O)n1-c1ccccc1 [Compound 43] | 100 to 500 | 1000 to 10000 | 1000 to 10000 | 10 to 100 | 1 to 10 | 1 to 10
12 | C[C@H](NC(=O)c1c(N)nn2cccnc12)c1nc2cccc(Cl)c2c(=O)n1-c1ccc(F)cc1 [Compound 45] | 1000 to 10000 | 1000 to 10000 | 1000 to 10000 | 10 to 100 | 10 to 100 | 1 to 10
13 | C[C@H](NC(=O)c1nccnc1N)c1nc2cccc(Cl)c2c(=O)n1-c1ccc(F)cc1 [Compound 46] | 1000 to 10000 | 1000 to 10000 | 1000 to 10000 | 100 to 500 | 1 to 10 | 10 to 100
14 | C[C@H](NC(=O)c1c(N)nn2cccnc12)c1cc2cccc(-c3cnn(CC#N)c3)c2c(=O)n1-c1ccccc1 [Compound 48] | 1000 to 10000 | 1000 to 10000 | 1000 to 10000 | 100 to 500 | 100 to 500 | 10 to 100
15 | C[C@H](NC(=O)c1c(N)nn2cccnc12)c1cc2cccc(-c3cnn(CC(F)(F)F)c3)c2c(=O)n1-c1ccccc1 [Compound 50] | 1000 to 10000 | 1000 to 10000 | 1000 to 10000 | 100 to 500 | 100 to 500 | 10 to 100
16 | C[C@H](NC(=O)c1nccnc1N)c1cc2cccc(C(F)(F)F)c2c(=O)n1-c1ccccc1 [Compound 52] | 500 to 1000 | 1000 to 10000 | 1000 to 10000 | 500 to 1000 | 10 to 100 | 10 to 100
17 | C[C@H](NC(=O)c1c(N)nn2cccnc12)c1cc2cccc(Cl)c2c(=O)n1CCCNS(C)(=O)=O [Compound 53] | 100 to 500 | 10 to 100 | 500 to 1000 | 10 to 100 | 1 to 10 | 100 to 500
18 | CNS(=O)(=O)CCn1c([C@H](C)NC(=O)c2c(N)nn3cccnc23)cc2cccc(Cl)c2c1=O [Compound 54] | 100 to 500 | 100 to 500 | 1000 to 10000 | 10 to 100 | 10 to 100 | 10 to 100
19 | C[C@H](NC(=O)c1c(N)nn2cccnc12)c1cc2cccc(Cl)c2c(=O)n1CCc1nnnn1C [Compound 55] | 1000 to 10000 | 100 to 500 | 1000 to 10000 | 100 to 500 | 10 to 100 | 100 to 500
20 | C[C@H](NC(=O)c1c(N)nn2cccnc12)c1cc2cccc(Cl)c2c(=O)n1CCc1nnn(C)n1 [Compound 56] | 1000 to 10000 | 500 to 1000 | 1000 to 10000 | 1000 to 10000 | 10 to 100 | 100 to 500
21 | C[C@H](NC(=O)c1c(N)nn2cccnc12)c1cc2cccc(Cl)c2c(=O)n1CCCS(C)(=O)=O [Compound 57] | 1000 to 10000 | 100 to 500 | 1000 to 10000 | 100 to 500 | 100 to 500 | 100 to 500
22 | C[C@H](NC(=O)c1c(N)nn2cccnc12)c1cc2cccc(Cl)c2c(=O)n1CCS(=O)(=O)N(C)C [Compound 58] | 100 to 500 | 500 to 1000 | 500 to 1000 | 10 to 100 | 10 to 100 | 1 to 10
23 | CCS(=O)(=O)NCCn1c([C@H](C)NC(=O)c2c(N)nn3cccnc23)cc2cccc(Cl)c2c1=O [Compound 61] | 100 to 500 | 100 to 500 | 1000 to 10000 | 10 to 100 | 10 to 100 | 100 to 500
24 | C#CCCn1c([C@H](C)NC(=O)c2c(N)nn3cccnc23)cc2cccc(Cl)c2c1=O [Compound 62] | 1000 to 10000 | 500 to 1000 | 1000 to 10000 | 500 to 1000 | 100 to 500 | 10 to 100
25 | C[C@H](NC(=O)c1c(N)nn2cccnc12)c1cc2cccc(Cl)c2c(=O)n1CCc1cnn[nH]1 [Compound 63] | 1000 to 10000 | 100 to 500 | 1000 to 10000 | 500 to 1000 | 100 to 500 | 500 to 1000
26 | C[C@H](NC(=O)c1c(N)nn2cccnc12)c1cc2cccc(Cl)c2c(=O)n1CCc1noc(C(C)(C)C)n1 [Compound 64] | 1000 to 10000 | 1000 to 10000 | 1000 to 10000 | 1000 to 10000 | 100 to 500 | 100 to 500
27 | CC(C)C(=O)Cc1cccc2cc([C@H](C)NC(=O)c3c(N)nn4cccnc34)n(-c3ccccc3)c(=O)c12 [Compound 65] | 1000 to 10000 | 1000 to 10000 | 1000 to 10000 | 1000 to 10000 | 100 to 500 | 10 to 100
28 | C[C@H](NC(=O)c1c(N)nn2cccnc12)c1cc2cccc(CCc3cnn(C)c3)c2c(=O)n1-c1ccccc1 [Compound 66] | – | – | – | 500 to 1000 | 10 to 100 | 1 to 10
29 | C[C@H](NC(=O)c1c(N)nn2cccnc12)c1nc2ccc(Cl)cc2c(=O)n1-c1ccccc1 [Compound 88] | 1000 to 10000 | 1000 to 10000 | 1000 to 10000 | 1000 to 10000 | – | –
30 | C[C@H](NC(=O)c1nccnc1N)c1oc2ccc(F)cc2c(=O)c1-c1ccccc1 [Compound 97] | 1000 to 10000 | 1000 to 10000 | 1000 to 10000 | 1000 to 10000 | – | –
